Test system: Leishmania (L. major)
Assay: Leishmania protozoa proliferation inhibition assay
Type: cell-based
Conditions: for OD level (number of viable Leishmania protozoa): 48 hours at 27° C., absorbance 450 nm minus 630 nm; for IC50: calculated from the graphs of FIGS. 1 to 4 (concentration vs number of viable leishmania protozoa), read-out: Concentration inhibiting 50% leishmania proliferation
Method: After dissolving each of the obtained compounds in dimethylsulfoxide (hereinafter referred to as DMSO), the resultant was diluted by 9 steps in Medium 199 medium (Invitrogen) to the indicated concentration, filtrated with a membrane filter, and each of the filtration was made as a sample solution. […] By keeping the solution at 27° C., incubation was performed under 5% CO2, for 48 hours. Then, TetraColor ONE (tradename: Seikagaku Corporation) reagent was added thereto and further incubated for 6 hours. Then, the absorbance at a wavelength of 450 nm was measured for the 96-well microtiter plate with a microplate reader, the wave length of 630 nm was made as reference wave length, and in order to exclude background effect, the absorbance at 630 nm was excluded from the one at 450 nm, and the OD level was calculated as a level to indicate the number of viable Leishmania protozoa. The assay was performed by three wells at a time for each concentration of each sample, and the mean level was made as OD level. […] Amphotericin B was used as positive control. […] Inhibiting effect against […] protozoa for each sample was similar or more compared with that of Amtephotericin B.

[1] = Table 1, sample concentration 0.001 mg/ml
[2] = Table 1, sample concentration 0.016384 mg/ml
[3] = Table 1, sample concentration 0.04096 mg/ml
[4] = Table 1, sample concentration 0.1024 mg/ml
[5] = Table 1, sample concentration 0.256 mg/ml
[6] = Table 1, sample concentration 0.64 mg/ml
[7] = Table 1, sample concentration 1.6 mg/ml
[8] = Table 1, sample concentration 4 mg/ml
[9] = Table 1, sample concentration 10 mg/ml
[10] = Table 1, sample concentration 25 mg/ml, mean of three wells
[11] = Table 3, sample concentration 0.001 mg/ml
[12] = Table 3, sample concentration 0.002165 mg/ml
[13] = Table 3, sample concentration 0.0072171 mg/ml
[14] = Table 3, sample concentration 0.02406 mg/ml
[15] = Table 3, sample concentration 0.08019 mg/ml
[16] = Table 3, sample concentration 0.2673 mg/ml
[17] = Table 3, sample concentration 0.891 mg/ml
[18] = Table 3, sample concentration 2.97 mg/ml
[19] = Table 3, sample concentration 9.9 mg/ml
[20] = Table 3, sample concentration 33 mg/ml

## CCn1c(=Cc2sc3ccccc3[n+]2CC)sc(=c2sc(=C3Sc4ccccc4N3C)c(=O)n2CC)c1=O.[Br-] [IV (e), 2-[[5-{5′-(3″-methyl-2″ (3″H)-benzothiazolylidene)-4′-oxo-3′-ethyl-2′-thiazolidinylidene)-4-oxo-3-ethyl-2-thiazolidinylidene]methyl]-3-ethylbenzothiazolium=bromide]
[1]
  OD level (number of viable Leishmania protozoa): 0.463
[2]
  OD level (number of viable Leishmania protozoa): 0.445
[3]
  OD level (number of viable Leishmania protozoa): 0.220
[4]
  OD level (number of viable Leishmania protozoa): 0.159
[5]
  OD level (number of viable Leishmania protozoa): 0.056
[6]
  OD level (number of viable Leishmania protozoa): 0.035
[7]
  OD level (number of viable Leishmania protozoa): 0.030
[8]
  OD level (number of viable Leishmania protozoa): 0.030
[9]
  OD level (number of viable Leishmania protozoa): 0.032
[10]
  OD level (number of viable Leishmania protozoa): 0.033
  IC50: 61 nM

## C[C@@H]1[C@H](O)[C@@H](C)/C=C/C=C/C=C/C=C/C=C/C=C/C=C/[C@H](O[C@@H]2O[C@H](C)[C@@H](O)[C@H](N)[C@@H]2O)C[C@@H]2O[C@](O)(C[C@@H](O)C[C@@H](O)[C@H](O)CC[C@@H](O)C[C@@H](O)CC(=O)O[C@H]1C)C[C@H](O)[C@H]2C(=O)O [Amphotericin B, reference compound]
Table 1, positive control line, concentration 0.001 mg/ml
  OD level (number of viable Leishmania protozoa): 0.428
Table 1, positive control line, concentration 0.0121094 mg/ml
  OD level (number of viable Leishmania protozoa): 0.394
Table 1, positive control line, concentration 0.0242188 mg/ml
  OD level (number of viable Leishmania protozoa): 0.373
Table 1, positive control line, concentration 0.0484375 mg/ml
  OD level (number of viable Leishmania protozoa): 0.352
Table 1, positive control line, concentration 0.096875 mg/ml
  OD level (number of viable Leishmania protozoa): 0.349
Table 1, positive control line, concentration 0.19375 mg/ml
  OD level (number of viable Leishmania protozoa): 0.044
Table 1, positive control line, concentration 0.3875 mg/ml
  OD level (number of viable Leishmania protozoa): 0.036
Table 1, positive control line, concentration 0.775 mg/ml
  OD level (number of viable Leishmania protozoa): 0.036
Table 1, positive control line, concentration 1.55 mg/ml
  OD level (number of viable Leishmania protozoa): 0.036
Table 1, positive control line, concentration 3.1 mg/ml
  OD level (number of viable Leishmania protozoa): 0.034
[11]
  OD level (number of viable Leishmania protozoa): 0.351
[12]
  OD level (number of viable Leishmania protozoa): 0.338
[13]
  OD level (number of viable Leishmania protozoa): 0.325
[14]
  OD level (number of viable Leishmania protozoa): 0.331
[15]
  OD level (number of viable Leishmania protozoa): 0.311
[16]
  OD level (number of viable Leishmania protozoa): 0.273
[17]
  OD level (number of viable Leishmania protozoa): 0.051
[18]
  OD level (number of viable Leishmania protozoa): 0.029
[19]
  OD level (number of viable Leishmania protozoa): 0.029
[20]
  OD level (number of viable Leishmania protozoa): 0.030
  IC50: 140 nM

## CN1C(=c2sc(=Cc3cccc[n+]3C)n(CC3CCCO3)c2=O)Sc2ccc3ccccc3c21.Cc1ccc(S(=O)(=O)[O-])cc1 (centres unmarked) [IV (l), 2-[{5-(3-methyl-2(3H)-benzobenzo[e]thiazolilidene)-4-oxo-3-(2-tetrahydrofuranyl)methyl-2-thiazolidinylidene}methyl]-1-methylpyridinium=p-toluenesulfonate]
[11]
  OD level (number of viable Leishmania protozoa): 0.357
[12]
  OD level (number of viable Leishmania protozoa): 0.346
[13]
  OD level (number of viable Leishmania protozoa): 0.358
[14]
  OD level (number of viable Leishmania protozoa): 0.357
[15]
  OD level (number of viable Leishmania protozoa): 0.377
[16]
  OD level (number of viable Leishmania protozoa): 0.391
[17]
  OD level (number of viable Leishmania protozoa): 0.178
[18]
  OD level (number of viable Leishmania protozoa): 0.080
[19]
  OD level (number of viable Leishmania protozoa): 0.035
[20]
  OD level (number of viable Leishmania protozoa): 0.029
  IC50: 1300 nM

## CN1/C(=C\c2cccc[n+]2C)Sc2ccccc21 [V (a), 2-[(3-methyl-2(3H)-benzothiazolylidene)methyl]-1-methylpyridinium=p-toluenesulfonate]
[1]
  OD level (number of viable Leishmania protozoa): 0.464
[2]
  OD level (number of viable Leishmania protozoa): 0.615
[3]
  OD level (number of viable Leishmania protozoa): 1.237
[4]
  OD level (number of viable Leishmania protozoa): 0.596
[5]
  OD level (number of viable Leishmania protozoa): 0.139
[6]
  OD level (number of viable Leishmania protozoa): 0.046
[7]
  OD level (number of viable Leishmania protozoa): 0.032
[8]
  OD level (number of viable Leishmania protozoa): 0.029
[9]
  OD level (number of viable Leishmania protozoa): 0.031
[10]
  OD level (number of viable Leishmania protozoa): 0.032
  IC50: 490 nM

## CN1/C(=c2\s/c(=C\c3cccc[n+]3C)n(Cc3ccccc3)c2=O)Sc2ccccc21.Cc1ccc(S(=O)(=O)[O-])cc1 [I (a), 2-[{5-(3-methyl-2(3H)-benzothiazolylidene)-4-oxo-3-benzyl-2-thiazolidinylidene}methyl]-1-methylpyridinium=p-toluenesulfonate]
Table 2, sample concentration 0.0001 mg/ml
  OD level (number of viable Leishmania protozoa): 0.356
Table 2, sample concentration 0.0007 mg/ml
  OD level (number of viable Leishmania protozoa): 0.361
Table 2, sample concentration 0.002 mg/ml
  OD level (number of viable Leishmania protozoa): 0.383
Table 2, sample concentration 0.008 mg/ml
  OD level (number of viable Leishmania protozoa): 0.469
Table 2, sample concentration 0.025 mg/ml
  OD level (number of viable Leishmania protozoa): 0.172
Table 2, sample concentration 0.084 mg/ml
  OD level (number of viable Leishmania protozoa): 0.088
Table 2, sample concentration 0.279 mg/ml
  OD level (number of viable Leishmania protozoa): 0.043
Table 2, sample concentration 0.93 mg/ml
  OD level (number of viable Leishmania protozoa): 0.034
Table 2, sample concentration 3.1 mg/ml
  OD level (number of viable Leishmania protozoa): 0.035
Table 2, sample concentration 2E−04 mg/ml
  OD level (number of viable Leishmania protozoa): 0.356
  IC50: 410 nM

From patent publication US20060252800A1, “Anti-leishmania agent” (priority 2003, published 2006)
